The values that follow come from patent US11377425B1, “Small molecule modulators of IL-17” (LEO Pharma A/S, priority 2018, dated 2022).

pEC50: −log10 of the molar value. A value given as a limit tells only on which side of the number the result lay.

This assay deals with T1, human IL-17AA (Homo sapiens, UniProt Q16552).
T1 construct: host or cells: HEK (human embryonic kidney) cells
T1 sequence (Q16552 24-155): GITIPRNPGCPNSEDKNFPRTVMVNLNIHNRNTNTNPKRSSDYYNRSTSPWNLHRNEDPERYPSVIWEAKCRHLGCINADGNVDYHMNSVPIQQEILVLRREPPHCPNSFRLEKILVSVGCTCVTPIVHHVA
The assay is described as follows: IL-8 release assay in human epithelial keratinocytes adult (HEKa). In kind it is cell-based. Particulars: HEKa cells, 3 ng/mL HEK-human IL-17AA + 10 ng/mL human TNFalpha; read-out: Rel EC50 IL-8 release assay. The essentials: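 IL-8 release, quantified by HTRF and normalized to controls, reports IL-17 signaling in HEKa cells treated with compound plus final 3 ng/mL IL-17AA (HEK-derived) and 10 ng/mL TNF-alpha for 68-72 h; TNF-alpha-only wells set 100% inhibition. Four-parameter logistic fits (r^2>0.9) give relative IC50 and Emax; PrestoBlue flags cytotoxicity.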

Turning to `Cc1n[nH]c(C)c1-c1ccc(NC(=O)[C@@H](NC(=O)c2cnc(C)n2C)C2CCCCC2)cc1` [Example 48, N-[(1S)-1-cyclohexyl-2-[4-(3,5-dimethyl-1H-pyrazol-4-yl)anilino]-2-oxo-ethyl]-2,3-dimethyl-imidazole-4-carboxamide], the pEC50 is below 6.00.
Consider `Cc1n[nH]c(C)c1-c1ccc(NC(=O)[C@@H](NC(=O)c2cncn2C)C2CCCCC2)cc1` [Example 49, N-[(1S)-1-cyclohexyl-2-[4-(3,5-dimethyl-1H-pyrazol-4-yl)anilino]-2-oxo-ethyl]-3-methyl-imidazole-4-carboxamide], for which the pEC50 is below 6.00.
Turning to `Cc1n[nH]c(C)c1-c1ccc(NC(=O)[C@@H](NC(=O)c2c(C)ncn2C)C2CCCCC2)cc1` [Example 50, N-[(1S)-1-cyclohexyl-2-[4-(3,5-dimethyl-1H-pyrazol-4-yl)anilino]-2-oxo-ethyl]-3,5-dimethyl-imidazole-4-carboxamide], the pEC50 is below 6.00.
Take `Cc1ncsc1CC(=O)N[C@H](C(=O)Nc1ccc(-c2c(C)n[nH]c2C)cc1)C1CCCCC1` [Example 51, (2S)-2-cyclohexyl-N-[4-(3,5-dimethyl-1H-pyrazol-4-yl)phenyl]-2-[[2-(4-methylthiazol-5-yl)acetyl]amino]acetamide]: the negative-log EC50 (pEC50) was below 6.00.
To `Cc1ncc(CC(=O)N[C@H](C(=O)Nc2ccc(-c3c(C)n[nH]c3C)cc2)C2CCCCC2)s1` [Example 52, (2S)-2-cyclohexyl-N-[4-(3,5-dimethyl-1H-pyrazol-4-yl)phenyl]-2-[[2-(2-methylthiazol-5-yl)acetyl]amino]acetamide] belongs below 6.00; to `Cc1n[nH]c(C)c1-c1ccc(NC(=O)[C@@H](NC(=O)Cn2ccnc2C)C2CCCCC2)cc1` [Example 53, (2S)-2-cyclohexyl-N-[4-(3,5-dimethyl-1H-pyrazol-4-yl)phenyl]-2-[[2-(2-methylimidazol-1-yl)acetyl]amino]acetamide], below 6.00; to `Cc1n[nH]c(C)c1-c1ccc(NC(=O)[C@@H](NC(=O)Cc2ccc(N(C)C)cc2)C2CCCCC2)cc1` [Example 54, (2S)-2-cyclohexyl-2-[[2-(4-dimethylaminophenyl)acetyl]amino]-N-[4-(3,5-dimethyl-1H-pyrazol-4-yl)phenyl]acetamide], 6.00 to 7.00.
As for `Cc1n[nH]c(C)c1-c1ccc(NC(=O)[C@@H](NC(=O)C(F)(F)c2ccccc2)C2CCCCC2)cc1` [Example 55, N-[(1S)-1-cyclohexyl-2-[4-(3,5-dimethyl-1H-pyrazol-4-yl)anilino]-2-oxo-ethyl]-2,2-difluoro-2-phenyl-acetamide], the figure is 6.00 to 7.00; as for `CCC(F)(F)C(=O)N[C@H](C(=O)Nc1ccc(-c2c(C)n[nH]c2C)cc1)C1CCCCC1` [Example 56, N-[(1S)-1-cyclohexyl-2-[4-(3,5-dimethyl-1H-pyrazol-4-yl)anilino]-2-oxo-ethyl]-2,2-difluoro-butanamide], 6.00 to 7.00.
As to `Cc1n[nH]c(C)c1-c1ccc(NC(=O)[C@@H](NC(=O)C2(C)CC2)C2CCCCC2)cc1` [Example 57, N-[(1S)-1-cyclohexyl-2-[4-(3,5-dimethyl-1H-pyrazol-4-yl)anilino]-2-oxo-ethyl]-1-methyl-cyclopropanecarboxamide], the pEC50 is 6.00 to 7.00.
To `Cc1nocc1C(=O)N[C@H](C(=O)Nc1ccc(-c2c(C)n[nH]c2C)cc1)C1CCCCC1` [Example 58, N-[(1S)-1-cyclohexyl-2-[4-(3,5-dimethyl-1H-pyrazol-4-yl)anilino]-2-oxo-ethyl]-3-methyl-isoxazole-4-carboxamide] belongs 6.00 to 7.00.
With `Cc1nocc1C(=O)N[C@H](C(=O)Nc1ccc(-c2c(C)n[nH]c2C)cc1)C1CCCCCC1` [Example 59, N-[(1S)-1-cycloheptyl-2-[4-(3,5-dimethyl-1H pyrazol-4-yl)anilino]-2-oxo-ethyl]-3-methyl-isoxazole-4-carboxamide], the pEC50 was above 7.00.
Consider `Cc1n[nH]c(C)c1-c1ccc(NC(=O)[C@@H](NC(=O)c2cnnn2C)C2CCCCC2)cc1` [Example 60, N-[(1S)-1-cyclohexyl-2-[4-(3,5-dimethyl-1H-pyrazol-4-yl)anilino]-2-oxo-ethyl]-3-methyl-triazole-4-carboxamide], for which the pEC50 was 6.00 to 7.00.
In the case of `Cc1n[nH]c(C)c1-c1ccc(NC(=O)[C@@H](NC(=O)c2cnnn2-c2ccccc2)C2CCCCC2)cc1` [Example 61, N-[(1S)-1-cyclohexyl-2-[4-(3,5-dimethyl-1H-pyrazol-4-yl)anilino]-2-oxo-ethyl]-3-phenyl-triazole-4-carboxamide], the pEC50 was 6.00 to 7.00.
As for `Cc1n[nH]c(C)c1-c1ccc(NC(=O)[C@@H](NC(=O)c2cnnn2C)C2CCCCCC2)cc1` [Example 62, N-[(1S)-1-cycloheptyl-2-[4-(3,5-dimethyl-1H-pyrazol-4-yl)anilino]-2-oxo-ethyl]-3-methyl-triazole-4-carboxamide], the figure is 6.00 to 7.00.
As for `Cc1n[nH]c(C)c1-c1ccc(NC(=O)[C@@H](NC(=O)c2cnnn2-c2ccccc2)C2CCCCCC2)cc1` [Example 63, N-[(1S)-1-cycloheptyl-2-[4-(3,5-dimethyl-1H-pyrazol-4-yl)anilino]-2-oxo-ethyl]-3-phenyl-triazole-4-carboxamide], the figure is above 7.00.
To `Cc1n[nH]c(C)c1-c1ccc(NC(=O)[C@@H](NC(=O)c2c[nH]c3cnccc23)C2CCCCC2)cc1` [Example 64, N-[(1S)-1-cyclohexyl-2-[4-(3,5-dimethyl-1H-pyrazol-4-yl)anilino]-2-oxo-ethyl]-1H-pyrrolo[2,3-c]pyridine-3-carboxamide] belongs 6.00 to 7.00; to `Cc1n[nH]c(C)c1-c1ccc(NC(=O)[C@@H](NC(=O)c2c[nH]c3ncccc23)C2CCCCC2)cc1` [Example 65, N-[(1S)-1-cyclohexyl-2-[4-(3,5-dimethyl-1H-pyrazol-4-yl)anilino]-2-oxo-ethyl]-1H-pyrrolo[2,3-b]pyridine-3-carboxamide], below 6.00.
With `Cc1n[nH]c(C)c1-c1ccc(NC(=O)[C@@H](NC(=O)C2(F)CC2)C2CCCCC2)cc1` [Example 66, N-[(1S)-1-cyclohexyl-2-[4-(3,5-dimethyl-1H-pyrazol-4-yl)anilino]-2-oxo-ethyl]-1-fluoro-cyclopropanecarboxamide], the pEC50 was 6.00 to 7.00.
To `Cc1n[nH]c(C)c1-c1ccc(NC(=O)[C@@H](NC(=O)C2(F)CC2)C2CCC(F)(F)CC2)cc1` [Example 67, N-[(1S)-1-(4,4-difluorocyclohexyl)-2-[4-(3,5-dimethyl-1H-pyrazol-4-yl)anilino]-2-oxo-ethyl]-1-fluoro-cyclopropanecarboxamide] belongs below 6.00.
As for `Cc1n[nH]c(C)c1-c1ccc(NC(=O)[C@@H](NC(=O)c2cnn3ccccc23)C2CCCCC2)cc1` [Example 68, N-[(1S)-1-cyclohexyl-2-[4-(3,5-dimethyl-1H-pyrazol-4-yl)anilino]-2-oxo-ethyl]pyrazolo[1,5-a]pyridine-3-carboxamide], the pEC50 was 6.00 to 7.00.
In the case of `Cc1n[nH]c(C)c1-c1ccc(NC(=O)[C@@H](NC(=O)c2conc2-c2ccc(Cl)cc2)C2CCCCC2)cc1` [Example 69, 3-(4-chlorophenyl)-N-[(1S)-1-cyclohexyl-2-[4-(3,5-dimethyl-1H-pyrazol-4-yl)anilino]-2-oxo-ethyl]isoxazole-4-carboxamide], the negative-log EC50 (pEC50) is below 6.00.

Usually pEC50 stands for the negative decadic logarithm of the EC50, by convention in mol/L.
